Experimental findings from paper PMC2918893 (Journal of biomolecular NMR, 2009) are described below.

In general, Kd refers to the free concentration of one partner at which half of the binding sites on the other are occupied at equilibrium, for simple one-to-one binding.

The target in this experiment is T1, HisF (cyclase subunit of imidazole glycerol phosphate synthase, IGPS) (Thermotoga maritima, UniProt Q9X0C6).
T1 sequence (Q9X0C6 1-253): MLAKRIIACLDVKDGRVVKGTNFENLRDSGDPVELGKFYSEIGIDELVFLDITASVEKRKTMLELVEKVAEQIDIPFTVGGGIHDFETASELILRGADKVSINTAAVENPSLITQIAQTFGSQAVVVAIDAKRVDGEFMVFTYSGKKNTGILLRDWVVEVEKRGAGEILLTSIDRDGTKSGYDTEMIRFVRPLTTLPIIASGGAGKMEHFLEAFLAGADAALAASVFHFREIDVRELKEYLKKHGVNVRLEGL
T1 sequence (Q9X0C8 1-201 partner): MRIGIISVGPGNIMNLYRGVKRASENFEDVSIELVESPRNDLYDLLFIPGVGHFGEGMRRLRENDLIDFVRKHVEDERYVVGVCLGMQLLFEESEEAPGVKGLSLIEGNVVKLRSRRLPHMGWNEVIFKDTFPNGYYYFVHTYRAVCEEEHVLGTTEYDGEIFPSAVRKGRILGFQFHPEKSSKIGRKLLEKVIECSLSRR
Description: 1H-15N TROSY NMR titration, global fit of chemical shift changes of […] residues. Format: binding.

The structures appear in SMILES notation.

Take `O=P(O)(O)OC[C@@H](O)[C@@H](O)c1c[nH]cn1` [IGP]: the Kd was determined as 500 ± 100 µM.
